Measured values published in PMC3206016, “Putting into Practice Domain-Linear Motif Interaction Predictions for Exploration of Protein Networks” (PLoS ONE, 2011).
Peptide text beside a SMILES is read from it. * marks the point of attachment. Biotin = O=C1N[C@H]2[C@H](CS[C@H]2CCCCC(=O)*)N1

Legend:
Assay in all cases: SPR binding of MBP-PDZ analyte to immobilised biotinylated peptides
Conditions in all cases: for norm. RU at 10 µM: SPR Req at 10 µM MBP-PDZ, normalised for analyte molecular weight and immobilised ligand
[1] = biological target: T1, SCRIB-3/4 PDZ domain (Homo sapiens, UniProt Q14160)
T1 construct: cDNA bearing residues 997–1093, 1097–1193 and 997–1193 of human SCRIB (Uniprot acc.: Q14160-1); made in house; host or cells: E. coli BL21 DE3
T1 sequence (Q14160 997-1093 isoform Q14160-1): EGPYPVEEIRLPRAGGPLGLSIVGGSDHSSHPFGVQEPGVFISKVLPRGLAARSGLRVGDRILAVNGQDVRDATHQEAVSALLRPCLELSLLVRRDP
Description: (§1) We opted for the surface plasmon resonance (SPR) method to measure these 190 (19 proteins×2 peptide versions×5 PDZ constructs) interactions. In SPR various concentrations of “analytes” (here, PDZ domains fused to the Maltose Binding Protein (MBP)) flow over surfaces presenting attached “ligands” (here, biotinylated peptides). The amount of analyte interacting with the ligand is measured and quantified in response units (RU). The intensity of this signal is proportional to the binding strength of the assayed interaction (Figure 5A). K [drawing 13] were obtained using a 1∶1 interaction model. However, these calculated K [drawing 14] were rather inaccurate especially for weak interactions. Therefore, we preferred to rank the binding strengths of the 190 interactions using normalised RU signals at equilibrium ( [drawing 15] ) rather than K [drawing 16] (see Methods for details). These normalised [drawing 17] values were plotted in form of a heat map (Figure 5B).
(§2) The cDNA encoding residues 448–572 and 613–752 of mouse MAGI-1 (UniProt acc.: Q6RHR9-1) encoding for MAGI1-2/6 (100% identical to human MAGI1-2/6) and MAGI1-3/6 (99% identical to human MAGI1-3/6) PDZ domains, respectively, were inserted into the NcoI/KpnI sites of the pETM-41 expression vector (EMBL) containing a 6×His-MBP tag followed by a TEV protease cleavage site. A similar cloning strategy was adopted for cDNA bearing residues 997–1093, 1097–1193 and 997–1193 of human SCRIB (Uniprot acc.: Q14160-1) encoding for SCRIB-3/4, SCRIB-4/4 PDZ domains and SCRIB-34/4 tandem PDZ construct, respectively.
(§3) Data were collected on a Biacore 2000 instrument (Biacore AB/GE Healthcare Bio-Sciences Corp., Piscataway, NJ, USA) at 25 [drawing 74] C. SPR experiments (ligand immobilisation and binding measurements) have been performed as described in Fournane et al.. Briefly, biotinylated peptides (instead of GST-fused recombinant peptides) were immobilised on CM5 sensorchips on which Neutravidin was previously attached. The MBP-PDZ domain analyte was injected at 8 to 10 different concentrations ranging from 0 up to 30 [drawing 75] M. Data were processed using the BiaEvaluation 3.2 software (Biacore AB/GE Healthcare Bio-Sciences Corp.) using “double referencing” [78] in which sensorgrams were corrected for buffer effects and bulk refractive index changes.
(§4) The steady-state binding signal ( [drawing 76] ) was derived by averaging the signals in a five second window at equilibrium. Steady-state analysis was performed by fitting the average signal [drawing 77] as a function of total MBP-PDZ concentrations, assuming a simple 1∶1 interaction binding isotherm model. […] Reasons for this inaccuracy are likely to be the following: 1. As previously described, several repetitions of all the measurements are required to determine accurate K [drawing 81] . In our case, such repetitions were not achievable in reasonable time due to the large amount of interactions measured in this study. 2. The highest injected analyte concentration restricts the maximal K [drawing 82] (weakest interaction) that can be accurately obtained. 3. A K [drawing 83] is estimated based on a mathematical extrapolation of observed [drawing 84] signals leading to additional uncertainty. Based on these reasons, we considered the calculated K [drawing 85] not as accurate enough to be used for absolute binding strength comparison in this study. We rather performed a relative analysis of binding strengths using directly [drawing 86] signals which are not biased by any mathematical assumption. We focussed on [drawing 87] signals obtained at 10 [drawing 88] M MBP-PDZ concentration, which have been systematically measured in duplicate. The [drawing 89] signal is directly proportional to the molecular weight of the analyte and the amount of immobilised ligand. Therefore, the [drawing 90] signals were normalised taking those into account before being used for binding strength comparison. […]

[2] = biological target: T2, SCRIB-34/4 tandem PDZ construct (Homo sapiens, UniProt Q14160)
T2 construct: residues 997–1093, 1097–1193 and 997–1193 of human SCRIB (Uniprot acc.: Q14160-1); made in house; host or cells: E. coli BL21 DE3
T2 sequence (Q14160 997-1193 isoform Q14160-1): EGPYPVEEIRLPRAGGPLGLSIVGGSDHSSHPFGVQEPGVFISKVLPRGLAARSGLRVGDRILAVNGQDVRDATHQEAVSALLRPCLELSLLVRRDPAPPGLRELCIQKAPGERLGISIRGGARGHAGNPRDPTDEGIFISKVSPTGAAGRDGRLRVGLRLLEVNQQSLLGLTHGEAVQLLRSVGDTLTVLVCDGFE
Description: as §1, §2, §3, §4

[3] = biological target: T3, MAGI1-3/6 PDZ domain (Mus musculus, UniProt Q6RHR9)
T3 construct: The cDNA encoding residues 448–572 and 613–752 of mouse MAGI-1 (UniProt acc.: Q6RHR9-1); made in house; host or cells: E. coli BL21 DE3
Description: as §1, §2, §3, §4

[4] = biological target: T4, MAGI1-2/6 PDZ domain (Mus musculus, UniProt Q6RHR9)
T4 construct: The cDNA encoding residues 448–572 and 613–752 of mouse MAGI-1 (UniProt acc.: Q6RHR9-1) encoding for MAGI1-2/6; made in house; host or cells: E. coli BL21 DE3
Description: as §1, §2, §3, §4

[5] = biological target: T5, SCRIB-4/4 PDZ domain (Homo sapiens, UniProt Q14160)
T5 construct: residues 997–1093, 1097–1193 and 997–1193 of human SCRIB (Uniprot acc.: Q14160-1); made in house; host or cells: E. coli BL21 DE3
T5 sequence (Q14160 1097-1193 isoform Q14160-1): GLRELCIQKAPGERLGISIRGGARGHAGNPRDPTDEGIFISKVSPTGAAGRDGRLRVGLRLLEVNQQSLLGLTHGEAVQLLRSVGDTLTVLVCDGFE
Description: as §1, §2, §3, §4

[6] = tentative KD, SPR Biacore 2000, 25 C, steady state, 1:1 binding isotherm, MBP-PDZ 0-30 µM, to be considered with caution

T3 sequence (Q6RHR9 613-752): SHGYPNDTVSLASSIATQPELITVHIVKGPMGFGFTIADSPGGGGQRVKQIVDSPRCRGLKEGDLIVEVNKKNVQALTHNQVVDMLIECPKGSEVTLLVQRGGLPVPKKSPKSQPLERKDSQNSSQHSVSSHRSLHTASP
T4 sequence (Q6RHR9 448-572): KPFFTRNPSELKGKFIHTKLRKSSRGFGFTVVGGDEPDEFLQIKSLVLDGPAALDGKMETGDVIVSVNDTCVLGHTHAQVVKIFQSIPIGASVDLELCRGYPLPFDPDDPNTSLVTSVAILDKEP

CC(C)[C@H](NC(=O)[C@H](CCC(=O)O)NC(=O)[C@@H](NC(=O)[C@H](CCC(=O)O)NC(=O)[C@H](CCCNC(=N)N)NC(=O)CNC(=O)[C@H](C)NC(=O)CNC(=O)[C@H](CO)NC(=O)CNC(=O)CCCC[C@@H]1SC[C@@H]2NC(=O)N[C@@H]21)[C@@H](C)O)C(=O)O [TAX1_05] (Biotin-GSGAGRETEV-OH)
Kd [1, 6]: 96 µM
Kd [2, 6]: 1 µM
Kd [3, 6]: 75 µM
Kd [4, 6]: 33 µM
Kd [5, 6]: 50 µM

CC(C)[C@H](NC(=O)[C@@H](NC(=O)[C@@H](NC(=O)[C@H](CCC(=O)O)NC(=O)[C@H](CCCCN)NC(=O)[C@H](CO)NC(=O)[C@H](CC(N)=O)NC(=O)[C@H](CCCNC(=N)N)NC(=O)[C@H](CCCCN)NC(=O)[C@@H](NC(=O)CCCC[C@@H]1SC[C@@H]2NC(=O)N[C@@H]21)C(C)C)[C@@H](C)O)C(C)C)C(=O)O [MARCH3_10] (Biotin-VKRNSKETVV-OH)
norm. RU at 10 µM [1]: 22.7 RU
norm. RU at 10 µM [2]: 88.1 RU
norm. RU at 10 µM [3]: 10.9 RU
norm. RU at 10 µM [4]: 54.7 RU
norm. RU at 10 µM [5]: 0.0 RU

EKPIDSETKM [GLAST_10, long peptide: last ten wild type C-terminal residues of Excitatory amino acid transporter 1, biotinylated]
norm. RU at 10 µM [1]: 0.0 RU
norm. RU at 10 µM [2]: 0.0 RU
norm. RU at 10 µM [3]: 0.0 RU
norm. RU at 10 µM [4]: 0.0 RU
norm. RU at 10 µM [5]: 0.0 RU

C[C@H](NC(=O)[C@@H](NC(=O)CCCC[C@@H]1SC[C@@H]2NC(=O)N[C@@H]21)[C@@H](C)O)C(=O)N[C@@H](CO)C(=O)N1CCC[C@H]1C(=O)N[C@@H](C)C(=O)N[C@@H](CCCCN)C(=O)N[C@@H](CCC(=O)O)C(=O)N[C@H](C(=O)N[C@@H](CO)C(=O)N[C@@H](Cc1ccccc1)C(=O)O)[C@@H](C)O [GLUT7_10] (Biotin-TASPAKETSF-OH)
norm. RU at 10 µM [1]: 57.5 RU
norm. RU at 10 µM [2]: 70.8 RU
norm. RU at 10 µM [3]: 0.0 RU
norm. RU at 10 µM [4]: 0.0 RU
norm. RU at 10 µM [5]: 0.0 RU
